Assays:
[1] = target: T1, EP4 receptor (Homo sapiens, UniProt P35408); assay: hEP4 cAMP assay (BT549 breast cancer cells, HTRF cAMP, PGE2 stimulation); format: cell-based; conditions: antagonistic activity, PGE2 6 nM (EC80)
T1 construct: BT549 breast cancer cells, express high endogenous EP4 levels and very low EP2 levels; host or cells: BT549 breast cancer cells
In short: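 BT549 cells, with endogenous EP4 and very low EP2, were preincubated 45 min at room temperature with compound in HBSS/HEPES/BSA buffer with 2 mM IBMX. They were then stimulated 30 min with 6 nM PGE2 (EC80). cAMP was measured by HTRF competitive immunoassay against a calibrator; IC50 from duplicate dose-response as % of DMSO control.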

[2] = target: T2, PTGER2 (EP2) (Homo sapiens, UniProt P43116); assay: hEP2 b-arrestin assay (PathHunter HEK 293 PTGER2 b-arrestin cells); format: cell-based; conditions: antagonistic activity, beta-arrestin assay; read-out: hEP2 b-arr IC50
T2 construct: host or cells: HEK 293 (PathHunter PTGER2 b-arrestin cell line)
In short: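 PathHunter HEK293 cells with ProLink-tagged EP2 and EA-β-arrestin 2 preincubated 15 min at 37 °C with compound (10 μM-2 nM or 1 μM-0.2 nM), then stimulated 120 min with 5 μM PGE2 (EC80). β-gal complementation read by chemiluminescence; IC50 from duplicate dose-response versus DMSO.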

T1 sequence (P35408 whole entry): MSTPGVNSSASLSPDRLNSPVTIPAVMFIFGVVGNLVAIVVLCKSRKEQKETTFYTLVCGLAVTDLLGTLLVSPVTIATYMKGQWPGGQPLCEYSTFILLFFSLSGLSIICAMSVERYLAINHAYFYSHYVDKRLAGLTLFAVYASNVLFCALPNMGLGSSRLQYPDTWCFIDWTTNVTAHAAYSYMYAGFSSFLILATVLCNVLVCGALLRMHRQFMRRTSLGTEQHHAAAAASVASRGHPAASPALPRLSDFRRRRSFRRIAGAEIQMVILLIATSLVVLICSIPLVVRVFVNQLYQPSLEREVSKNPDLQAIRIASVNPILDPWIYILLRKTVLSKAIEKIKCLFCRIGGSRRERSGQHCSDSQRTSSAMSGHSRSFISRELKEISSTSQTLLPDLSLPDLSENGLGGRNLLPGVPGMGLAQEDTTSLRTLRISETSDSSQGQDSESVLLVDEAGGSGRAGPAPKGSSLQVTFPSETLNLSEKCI
T2 sequence (P43116 whole entry): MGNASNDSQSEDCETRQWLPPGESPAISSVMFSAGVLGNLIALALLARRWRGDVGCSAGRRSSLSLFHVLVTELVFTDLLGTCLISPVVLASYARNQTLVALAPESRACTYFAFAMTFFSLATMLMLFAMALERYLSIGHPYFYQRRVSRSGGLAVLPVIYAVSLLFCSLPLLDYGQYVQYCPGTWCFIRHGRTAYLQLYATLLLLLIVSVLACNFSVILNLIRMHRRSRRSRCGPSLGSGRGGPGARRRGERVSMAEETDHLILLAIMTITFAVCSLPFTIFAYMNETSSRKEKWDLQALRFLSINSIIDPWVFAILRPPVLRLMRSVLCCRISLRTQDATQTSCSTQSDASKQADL

Row | Structure (SMILES) | IC50 [1] | IC50 [2]
1 | CCOc1cc(-c2cc(NCCc3c(C#N)sc4c(C)cc(F)cc34)ncn2)cc(F)c1CC(=O)O [Example 165, (4-{6-[2-(2-Cyano-5-fluoro-7-methyl-benzo[b]thiophen-3-yl)-ethylamino]-pyrimidin-4-yl}-2-ethoxy-6-fluoro-phenyl)-acetic acid] | 40 nM | 28 nM
2 | Cc1sc2c(C)cccc2c1CCNc1cc(-c2ccc(C(=O)O)c(SCC(C)C)c2)ncn1 [Example 166, 4-{6-[2-(2,7-Dimethyl-benzo[b]thiophen-3-yl)-ethylamino]-pyrimidin-4-yl}-2-isobutylsulfanyl-benzoic acid] | 1130 nM | 31 nM
3 | CCCc1cc(-c2cc(NCCc3c(C#N)sc4c(C)cc(F)cc34)ncn2)ccc1C(=O)O [Example 167, 4-{6-[2-(2-Cyano-5-fluoro-7-methyl-benzo[b]thiophen-3-yl)-ethylamino]-pyrimidin-4-yl}-2-propyl-benzoic acid] | 29 nM | 5 nM
4 | COc1cc(-c2cc(NCCc3c(C#N)sc4c(C)cc(F)cc34)ncn2)ccc1CC(=O)O [Example 168, (4-{6-[2-(2-Cyano-5-fluoro-7-methyl-benzo[b]thiophen-3-yl)-ethylamino]-pyrimidin-4-yl}-2-methoxy-phenyl)-acetic acid] | 2990 nM | 65 nM
5 | CCCOc1cc(-c2cc(NCCc3c(C#N)sc4c(C)cc(F)cc34)ncn2)ccc1CC(=O)O [Example 169, (4-{6-[2-(2-Cyano-5-fluoro-7-methyl-benzo[b]thiophen-3-yl)-ethylamino]-pyrimidin-4-yl}-2-propoxy-phenyl)-acetic acid] | 30 nM | 30 nM
6 | CCCc1cc(-c2cc(NCCc3c(C#N)sc4c(C)cc(F)cc34)ncn2)ccc1CC(=O)O [Example 170, (4-{6-[2-(2-Cyano-5-fluoro-7-methyl-benzo[b]thiophen-3-yl)-ethylamino]-pyrimidin-4-yl}-2-propyl-phenyl)-acetic acid] | 13 nM | 19 nM
7 | Cc1cc(F)cc2c(CCNc3cc(-c4ccc(CC(=O)O)c(OC(C)C)c4)ncn3)c(C#N)sc12 [Example 171, (4-{6-[2-(2-Cyano-5-fluoro-7-methyl-benzo[b]thiophen-3-yl)-ethylamino]-pyrimidin-4-yl}-2-isopropoxy-phenyl)-acetic acid] | 42 nM | 59 nM
8 | Cc1cc(F)cc2c(CCNc3cc(-c4ccc(C(=O)O)c(OC(C)C)c4)ncn3)c(C#N)sc12 [Example 172, 4-{6-[2-(2-Cyano-5-fluoro-7-methyl-benzo[b]thiophen-3-yl)-ethylamino]-pyrimidin-4-yl}-2-isopropoxy-benzoic acid] | 70 nM | 40 nM
9 | CCOc1cc(-c2cc(NCCc3c(C#N)sc4c(C)cc(F)cc34)ncn2)ccc1OCCC(=O)O [Example 176, 3-(4-{6-[2-(2-Cyano-5-fluoro-7-methyl-benzo[b]thiophen-3-yl)-ethylamino]-pyrimidin-4-yl}-2-ethoxy-phenoxy)-propionic acid] | 12 nM | 9 nM
10 | Cc1sc2c(C)cc(F)cc2c1CCNc1cc(-c2ccc(CC(=O)O)c(CC(C)C)c2)ncn1 [Example 182, (4-{6-[2-(5-Fluoro-2,7-dimethyl-benzo[b]thiophen-3-yl)-ethylamino]-pyrimidin-4-yl}-2-isobutyl-phenyl)-acetic acid] | 378 nM | 41 nM
11 | Cc1sc2c(C)cc(F)cc2c1CCNc1cc(-c2ccc(C(=O)O)c(OCC(C)C)c2)ncn1 [Example 184, 4-{6-[2-(5-Fluoro-2,7-dimethyl-benzo[b]thiophen-3-yl)-ethylamino]-pyrimidin-4-yl}-2-isobutoxy-benzoic acid] | 553 nM | 7 nM
12 | CCCc1cc(-c2cc(NCCc3c(C)sc4c(C)cc(F)cc34)ncn2)ccc1CC(=O)O [Example 186, (4-{6-[2-(5-Fluoro-2,7-dimethyl-benzo[b]thiophen-3-yl)-ethylamino]-pyrimidin-4-yl}-2-propyl-phenyl)-acetic acid] | 252 nM | 22 nM
13 | CCOc1cc(-c2cc(NCCc3c(C)sc4c(C)cc(F)cc34)ncn2)ccc1C(=O)C(=O)O [Example 189, (2-Ethoxy-4-{6-[2-(5-fluoro-2,7-dimethyl-benzo[b]thiophen-3-yl)-ethylamino]-pyrimidin-4-yl}-phenyl)-oxo-acetic acid] | 121 nM | 20 nM
14 | CCCOc1cc(-c2cc(NCCc3c(C)sc4c(C)cc(F)cc34)ncn2)ccc1CC(=O)O [Example 190, (4-{6-[2-(5-Fluoro-2,7-dimethyl-benzo[b]thiophen-3-yl)-ethylamino]-pyrimidin-4-yl}-2-propoxy-phenyl)-acetic acid] | 219 nM | 28 nM

— patent US11325899B2, “Benzofurane and benzothiophene derivatives as PGE2 receptor modulators” (IDORSIA PHARMACEUTICALS LTD, priority 2017, dated 2022)
